Test results reported in PMC4503454, “A Lead-In with Silibinin Prior to Triple-Therapy Translates into Favorable Treatment Outcomes in Difficult-To-Treat HIV/Hepatitis C Coinfected Patients” (PLoS ONE, 2015).

Tests used:
[1] = parameters: species or system human; details: in vivo; for Median Cmax (Range): human, iv, 20 mg/kg/day
Procedure: To measure silibinin plasma concentration, the plasma concentrations of silibinin isomers (A and B) and silibinin dihydrogen succinate isomers (A and B) were determined by LC/MS-MS. Of note, the range of plasma concentrations of the LC-MS/MS assay was selected according to the levels reported in the study from Sala et al. Briefly, 100 μl of plasma was added to 20 μl of internal standard naringenin (IS) and extracted by protein precipitation. After evaporation and reconstitution, 20 μL was injected into a Select- HSS T3 (2.1x75 mm, 3.5 μm) (Waters, Milford, MA, USA).
Chromatographic separations were performed using a gradient program with 10 mM ammonium formate containing 0.1% formic acid and acetonitrile with 0.1% formic acid. Analytes were quantified by electrospray ionization-triple quadrupole mass spectrometry using the selected reaction monitoring detection in the negative mode. Importantly, the selected gradient program allows adequate separation to quantify isomers A and B individually. The method has a mean inter-day coefficient of variation (CV) % of <10% and an inter-day deviation from nominal values of <7%.
Of note, the Cmin of isomer A of both silibinin dihydrogen succinate and silibinin were 2- and 7-fold higher than the corresponding values of isomer B [20].

[2] = Antiretroviral plasma trough levels before and during silibinin; format: in vivo, human
Procedure: Plasma samples obtained from HIV-HCV infected individuals were isolated by immediate centrifugation at 1850 X g (3000 rpm) and stored at -80°C. For the plasma quantification of antiretroviral drugs, samples were inactivated for virus at 60°C for 60 minutes. Plasma levels were determined by liquid chromatography coupled with tandem mass spectrometry (LC-MS/MS) after protein precipitation with acetonitrile according to our previously reported validated analytical method. The laboratory participates in an international external quality assurance program for antiretroviral drugs analysis (KKGT, Stichting Kwaliteitsbewaking Klinische Geneesmiddelanalyse en Toxicologie, Association for Quality Assessment in TDM and clinical Toxicology, The Hague, The Netherlands). Plasma trough levels for raltegravir (RAL), darunavir (DRV), atazanavir (ATV), and etravirine (ETV) were graphically extrapolated from measured concentrations, using population pharmacokinetic models previously published. Reference values for efavirenz (EFV) were adopted from a study from Marzolini et al.. The median trough concentrations for these agents in HIV-infected persons receiving the recommended dose are taken from the guidelines for the use of antiretroviral agents in HIV-1 infected adults and adolescents.
We used an intention-to-continue treatment approach to calculate virologic responses as percentage of patients with undetectable HCV-RNA, using all patients who started treatment as denominator. Plasma concentrations are presented as median (range). Two-tailed paired t-tests were conducted to detect difference in trough levels of antiretroviral drugs between pre- and post-administration of silibinin. GraphPad Prism 6 (GraphPad Software, La Jolla, CA) was used with an alpha of 0.05.

[3] = plasma, paired t-test, ATV/r p = 0.89, RAL p = 0.90, ETV, EFV, DRV/r p = 0.14

## COc1cc([C@H]2Oc3cc([C@H]4Oc5cc(O)cc(O)c5C(=O)[C@@H]4O)ccc3O[C@@H]2CO)ccc1O [Silibinin A]
[1]
  Median Cmax (Range): 0.62 (0.29–1.07) μg/mL
  Cmin of isomer A relative to isomer B: 7 fold

## Cc1nnc(C(=O)NC(C)(C)c2nc(C(=O)NCc3ccc(F)cc3)c(O)c(=O)n2C)o1 [RAL, raltegravir]
[2]; [3]
  trough level under silibinin coadministration (day 1 vs day 12): not influenced

## COc1cc(C2Oc3cc(C4Oc5cc(O)cc(O)c5C(=O)C4O)ccc3OC2CO)ccc1O (centres unmarked) [Silibinin B]
[1]
  Median Cmax (Range): 0.25 (0.08–0.78) μg/mL

## O=C1Nc2ccc(Cl)cc2[C@@](C#CC2CC2)(C(F)(F)F)O1 [EFV, efavirenz]
[2]; in vivo
  trough level under silibinin coadministration (day 1 vs day 12): not influenced

## atazanavir/ritonavir [ATV/r]
[2]; [3]
  trough level under silibinin coadministration (day 1 vs day 12): not influenced

## darunavir/ritonavir [DRV/r]
[2]; [3]
  trough level under silibinin coadministration (day 1 vs day 12): not influenced

## Cc1cc(C#N)cc(C)c1Oc1nc(Nc2ccc(C#N)cc2)nc(N)c1Br [ETV, etravirine]
[2]; [3]
  trough level under silibinin coadministration (day 1 vs day 12): not influenced
